We go through ten compounds from US5670482A, “Neuropeptide Y antagonists” (Glaxo Wellcome Inc., priority 1992, dated 1997).

Positions of bridges follow the written chain, without caps; N, C: chain ends. Non-standard residues stand in square brackets, D forms with d. Residues, ends and D or L forms follow the SMILES beside them. Chains are numbered I, II in the order given. *: point of attachment. Desaminotyrosyl = O=C(CCc1ccc(O)cc1)*; Orn = NCCC[C@H](N)C(=O)O; Dap = NC[C@H](N)C(=O)O; X1 = Clc1cccc(Cl)c1C*; Aib = CC(C)(N)C(=O)O

By IC50 is commonly meant the midpoint of a concentration-inhibition curve.

In assay [1] the target is NPY receptors in rat brain membranes. Description: Radioreceptor binding assay (3H-NPY, rat brain membranes). The conditions noted are these: 37° C. The protocol: Rat brain membranes were incubated with ^3 H-NPY up to equilibrium at 37° C. in the presence of several peptides at different concentrations and in a final volume of 1 ml. Non-specific binding was determined by adding 100 nM of cold NPY. At the end of the incubation period the samples were either filtered (GF/C filter), or 0.5 ml of cold incubation buffer was added and the tubes centrifuged at 15,000 g for 10 min. The supernatant was discarded and the pellet or filters resuspended and counted by liquid scintillation. Results were processed using a computer programme that calculated IC50, Kd, Bmax and Hill coefficient by linear regression. IC50 results where available are shown in column (a) of the Table.

Assay [2] deals with Human erythroleukemic (HEL) cells. Description: Intracellular calcium measurements in HEL cells (Fura-2). It counts as cell-based. Particulars: for HEL CELLS % Fluor (c): agonistic activity: fluorescence induced by 100 nM of the peptide; for IC50: antagonism of 5 nM NPY-induced calcium signal, read-out: HEL CELLS IC50 (d); for HEL CELLS % INHIB (b): inhibition of increase in HEL cell intracellular calcium induced by 5 nM NPY, 100 nM compound. The protocol:
Human erythroleukemic (HEL) cells were loaded with Fura-2 (1 μM for 1 h), washed and then placed in a cuvette (5×10^5 cells in 2.5 ml) and excited simultaneously at 340 and 380 nm in a SLM spectrofluorometer. Fluorescence changes after the addition of NPY and/or peptide analogs were followed by recording emission at 510 nm. Calcium concentrations can be determined through a computer programme by using the ratio of fluorescence 340/380 nm. The agonistic activity of peptide analogs was tested by recording the fluorescence induced upon stimulation of the cells with 100 nM of the peptide and the antagonistic activity by observing the decrease in fluorescence induced by 5 nM NPY in the presence of the analog The results where available are indicated in column (c) of the Table.
The inhibition of the increase in the HEL cell intracellular calcium (induced by 5 nM NPY) achieved by 100 nM concentrations of each compound is shown in column (b) of the Table.
(A change in cytosolic calcium serves as a functional read-out for many receptors and channels.)

In turn, “IleCysProCysTyrArgLeuArgTyr-NH2,Cyclic(2,2'), (4,4')-Disulfide Dimer and IleCysProCysTyrArgLeuArgTyr-NH2,Cyclic(2,4'),(4,2')-Disulfide Dimer [Example 6]” gave an IC50 in assay [1] of 250 nM. For the same compound, in assay [2], the “HEL CELLS % Fluor (c)” value is on record as 0%, the concentration for half-maximal inhibition (IC50) is 2 nM and the “HEL CELLS % INHIB (b)” value is reported as 100%.
On the same counts, the results for `CC[C@H](C)[C@H](N)C(=O)N[C@H]1CCC(=O)NCCC[C@@H](C(=O)N[C@@H](Cc2ccc(O)cc2)C(=O)N[C@@H](CCCNC(=N)N)C(=O)N[C@@H](CC(C)C)C(=O)N[C@@H](CCCNC(=N)N)C(=O)N[C@@H](Cc2ccc(O)cc2)C(N)=O)NC(=O)[C@@H]2CCCN2C(=O)[C@@H](NC(=O)[C@@H](N)[C@@H](C)CC)CCC(=O)NCCC[C@@H](C(=O)N[C@@H](Cc2ccc(O)cc2)C(=O)N[C@@H](CCCNC(=N)N)C(=O)N[C@@H](CC(C)C)C(=O)N[C@@H](CCCNC(=N)N)C(=O)N[C@@H](Cc2ccc(O)cc2)C(N)=O)NC(=O)[C@@H]2CCCN2C1=O` [Example 15, IleGluProOrnTyrArgLeuArgTyr-NH2,Cyclic(2,4'),(2',4)-Diamide] (I: H-IEP[Orn]YRLRY-NH2 / II: H-IEP[Orn]YRLRY-NH2; amide I:2-II:4, I:4-II:2; N-terminus assumed) are under 0.1 nM, 0%, 0.25 nM and 100%.
On the same counts, the results for `CC[C@H](C)[C@H](N)C(=O)N[C@@H](CC(N)=O)C(=O)N1CCC[C@H]1C(=O)NC(CCCC(NC(=O)[C@@H]1CCCN1C(=O)[C@H](CC(N)=O)NC(=O)[C@@H](N)[C@@H](C)CC)C(=O)N[C@@H](Cc1ccc(O)cc1)C(=O)N[C@@H](CCCNC(=N)N)C(=O)N[C@@H](CC(C)C)C(=O)N[C@@H](CCCNC(=N)N)C(=O)N[C@@H](Cc1ccc(O)cc1)C(N)=O)C(=O)N[C@@H](Cc1ccc(O)cc1)C(=O)N[C@@H](CCCNC(=N)N)C(=O)N[C@@H](CC(C)C)C(=O)N[C@@H](CCCNC(=N)N)C(=O)N[C@@H](Cc1ccc(O)cc1)C(N)=O` (stereo partly drawn) [Example 14, IleAsnPro TyrArgLeuArgTyr-NH2 (SEQ.ID.No:17) Pim IleAsnPro TyrArgLeuArgTyr-NH2 (SEQ.ID.No:17)] are 1.9 nM, 0%, 5 nM and 100%.
`CC[C@H](C)[C@H](N)C(=O)N[C@H]1CC(=O)NC[C@@H](C(=O)N[C@@H](Cc2ccc(O)cc2)C(=O)N[C@@H](CCCNC(=N)N)C(=O)N[C@@H](CC(C)C)C(=O)N[C@@H](CCCNC(=N)N)C(=O)N[C@@H](Cc2ccc(O)cc2)C(N)=O)NC(=O)[C@@H]2CCCN2C(=O)[C@@H](NC(=O)[C@@H](N)[C@@H](C)CC)CC(=O)NC[C@@H](C(=O)N[C@@H](Cc2ccc(O)cc2)C(=O)N[C@@H](CCCNC(=N)N)C(=O)N[C@@H](CC(C)C)C(=O)N[C@@H](CCCNC(=N)N)C(=O)N[C@@H](Cc2ccc(O)cc2)C(N)=O)NC(=O)[C@@H]2CCCN2C1=O` [Example 7, IleAspProDprTyrArgLeuArgTyr-NH2,Cyclic(2,4'),(2',4)-Diamide] (I: H-IDP[Dap]YRLRY-NH2 / II: H-IDP[Dap]YRLRY-NH2; amide I:2-II:4, I:4-II:2; N-terminus assumed): the 50% inhibitory concentration (IC50) in assay [1] came out at 15 nM. Moreover, in assay [2], the “HEL CELLS % Fluor (c)” value was found to be 0%, the IC50 turned out to be 1.5 nM and the “HEL CELLS % INHIB (b)” value stood at 100%.
On the same counts, the results for `CC[C@H](C)[C@H](N)C(=O)N[C@H]1CNC(=O)C[C@@H](C(=O)N[C@@H](Cc2ccc(O)cc2)C(=O)N[C@@H](CCCNC(=N)N)C(=O)N[C@@H](CC(C)C)C(=O)N[C@@H](CCCNC(=N)N)C(=O)N[C@@H](Cc2ccc(O)cc2)C(N)=O)NC(=O)[C@@H]2CCCN2C(=O)[C@@H](NC(=O)[C@@H](N)[C@@H](C)CC)CNC(=O)C[C@@H](C(=O)N[C@@H](Cc2ccc(O)cc2)C(=O)N[C@@H](CCCNC(=N)N)C(=O)N[C@@H](CC(C)C)C(=O)N[C@@H](CCCNC(=N)N)C(=O)N[C@@H](Cc2ccc(O)cc2)C(N)=O)NC(=O)[C@@H]2CCCN2C1=O` [Example 8, IleDprProAspTyrArgLeuArgTyr-NH2,Cyclic(2,4'),(2',4)-Diamide] (I: H-I[Dap]PDYRLRY-NH2 / II: H-I[Dap]PDYRLRY-NH2; amide I:2-II:4, I:4-II:2; N-terminus assumed) are 7.5 nM, 0%, 2.5 nM and 100%.
On the same counts, the results for `CC[C@H](C)[C@H](N)C(=O)N[C@@H](CC(N)=O)C(=O)N1CCC[C@H]1C(=O)NC(C)(C)C(=O)N[C@@H](Cc1ccc(OCc2c(Cl)cccc2Cl)cc1)C(=O)N[C@@H](CCCNC(=N)N)C(=O)N[C@@H](CC(C)C)C(=O)N[C@@H](CCCNC(=N)N)C(=O)N[C@@H](Cc1ccc(O)cc1)C(N)=O` [Example 3, IleAsnProAib[O-(2,6-Dichlorobenzyl)Tyr]ArgLeuArgTyr-NH2] (H-INP[Aib]Y(X1)RLRY-NH2; N-terminus assumed) are 350 nM, 0%, 8 nM and 100%.
On the same counts, the results for `CC[C@H](C)[C@H](N)C(=O)N[C@@H](CSSC[C@H](NC(=O)[C@@H](N)[C@@H](C)CC)C(=O)N1CCC[C@H]1C(=O)N[C@H](C(=O)N[C@@H](Cc1ccc(O)cc1)C(=O)N[C@@H](CCCNC(=N)N)C(=O)N[C@@H](CC(C)C)C(=O)N[C@@H](CCCNC(=N)N)C(=O)N[C@@H](Cc1ccc(O)cc1)C(N)=O)[C@@H](C)CC)C(=O)N1CCC[C@H]1C(=O)N[C@H](C(=O)N[C@@H](Cc1ccc(O)cc1)C(=O)N[C@@H](CCCNC(=N)N)C(=O)N[C@@H](CC(C)C)C(=O)N[C@@H](CCCNC(=N)N)C(=O)N[C@@H](Cc1ccc(O)cc1)C(N)=O)[C@@H](C)CC` [Example 13, (IleCysProIleTyrArgLeuArgTyr-NH2)2] (I: H-ICPIYRLRY-NH2 / II: H-ICPIYRLRY-NH2; disulfide I:2-II:2 (inferred); N-terminus assumed) are 35 nM, 0%, 0.75 nM and 100%.
In assay [1], `CC[C@H](C)[C@H](N)C(=O)N[C@@H](CC(N)=O)C(=O)N1CCC[C@H]1C(=O)N[C@H](C(=O)N[C@@H](Cc1ccc(O)cc1)C(=O)N[C@@H](CCCNC(=N)N)C(=O)N[C@@H](CC(C)C)C(=O)N[C@@H](CCCNC(=N)N)C(=O)N[C@@H](Cc1ccc(O)cc1)C(N)=O)[C@@H](C)OC` [Example 2, IleAsnPro(O-MethylThr)TyrArgLeuArgTyr-NH2] (H-INPT(Me)YRLRY-NH2) had an IC50 of 280 nM. Besides, in assay [2], the “HEL CELLS % Fluor (c)” value is 0%, the IC50 is 5 nM and the “HEL CELLS % INHIB (b)” value is on record as 100%.
On the same counts, the results for `CC[C@H](C)[C@H](N)C(=O)N[C@H]1CC(=O)NCCC[C@@H](C(=O)N[C@@H](Cc2ccc(O)cc2)C(=O)N[C@@H](CCCNC(=N)N)C(=O)N[C@@H](CC(C)C)C(=O)N[C@@H](CCCNC(=N)N)C(=O)N[C@@H](Cc2ccc(O)cc2)C(N)=O)NC(=O)[C@@H]2CCCN2C(=O)[C@@H](NC(=O)[C@@H](N)[C@@H](C)CC)CC(=O)NCCC[C@@H](C(=O)N[C@@H](Cc2ccc(O)cc2)C(=O)N[C@@H](CCCNC(=N)N)C(=O)N[C@@H](CC(C)C)C(=O)N[C@@H](CCCNC(=N)N)C(=O)N[C@@H](Cc2ccc(O)cc2)C(N)=O)NC(=O)[C@@H]2CCCN2C1=O` [Example 16, IleAspProOrnTyrArgLeuArgTyrNH2,Cyclic(2,4'),(2',4)-Diamide] (I: H-IDP[Orn]YRLRY-NH2 / II: H-IDP[Orn]YRLRY-NH2; amide I:2-II:4, I:4-II:2; N-terminus assumed) are under 0.1 nM, 0%, 0.25 nM and 100%.
In assay [1], `CC[C@H](C)[C@H](NC(=O)CCc1ccc(O)cc1)C(=O)N[C@@H](CC(N)=O)C(=O)N[C@@H](CC(C)C)C(=O)N[C@H](C(=O)N[C@@H](Cc1ccc(O)cc1)C(=O)N[C@@H](CCCNC(=N)N)C(=O)N[C@@H](CC(C)C)C(=O)N[C@@H](CCCNC(=N)N)C(=O)N[C@@H](Cc1ccc(O)cc1)C(N)=O)[C@@H](C)CC` [Example 18, desNH2 TyrIleAsnLeuIleTyrArgLeuArgTyr-NH2] (Desaminotyrosyl-INLIYRLRY-NH2) registered an IC50 of 17 nM. For the same compound, in assay [2], the “HEL CELLS % Fluor (c)” value is listed as 28% and the “HEL CELLS % INHIB (b)” value was 62%.
